In patent publication US12065436B2, “Cardiac sarcomere inhibitors” (Cytokinetics, Inc., priority 2018, dated 2024):
pIC50: −log10 of the molar value.

Biological target: bovine cardiac myofibrils (full-length cardiac myosin ATPase in the native sarcomere) (Bos taurus (Bovine), UniProt Q9BE39)
Assay: Skinned bovine cardiac myofibril ATPase assay (PK/LDH-coupled)
Format: biochemical
Settings: Ca2+ activating to 75% of maximal rate; for CDMF75 IC15: concentration giving 15% inhibition; for pIC50: read-out: CDMF75 IC50
In short: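 Inhibition of steady-state ATPase read at 340 nm through a PK/LDH-coupled NADH system (0.5 mM NADH, 1.5 mM PEP). Detergent-skinned bovine cardiac myofibrils, 1 mg/mL, were tested at pH 6.8 in PIPES/MgCl2 with 50 μM ATP and calcium adjusted to give pCa50 or pCa75 activation.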

Chain of bovine cardiac myofibrils (full-length cardiac myosin ATPase in the native sarcomere) (Q9BE39 whole entry): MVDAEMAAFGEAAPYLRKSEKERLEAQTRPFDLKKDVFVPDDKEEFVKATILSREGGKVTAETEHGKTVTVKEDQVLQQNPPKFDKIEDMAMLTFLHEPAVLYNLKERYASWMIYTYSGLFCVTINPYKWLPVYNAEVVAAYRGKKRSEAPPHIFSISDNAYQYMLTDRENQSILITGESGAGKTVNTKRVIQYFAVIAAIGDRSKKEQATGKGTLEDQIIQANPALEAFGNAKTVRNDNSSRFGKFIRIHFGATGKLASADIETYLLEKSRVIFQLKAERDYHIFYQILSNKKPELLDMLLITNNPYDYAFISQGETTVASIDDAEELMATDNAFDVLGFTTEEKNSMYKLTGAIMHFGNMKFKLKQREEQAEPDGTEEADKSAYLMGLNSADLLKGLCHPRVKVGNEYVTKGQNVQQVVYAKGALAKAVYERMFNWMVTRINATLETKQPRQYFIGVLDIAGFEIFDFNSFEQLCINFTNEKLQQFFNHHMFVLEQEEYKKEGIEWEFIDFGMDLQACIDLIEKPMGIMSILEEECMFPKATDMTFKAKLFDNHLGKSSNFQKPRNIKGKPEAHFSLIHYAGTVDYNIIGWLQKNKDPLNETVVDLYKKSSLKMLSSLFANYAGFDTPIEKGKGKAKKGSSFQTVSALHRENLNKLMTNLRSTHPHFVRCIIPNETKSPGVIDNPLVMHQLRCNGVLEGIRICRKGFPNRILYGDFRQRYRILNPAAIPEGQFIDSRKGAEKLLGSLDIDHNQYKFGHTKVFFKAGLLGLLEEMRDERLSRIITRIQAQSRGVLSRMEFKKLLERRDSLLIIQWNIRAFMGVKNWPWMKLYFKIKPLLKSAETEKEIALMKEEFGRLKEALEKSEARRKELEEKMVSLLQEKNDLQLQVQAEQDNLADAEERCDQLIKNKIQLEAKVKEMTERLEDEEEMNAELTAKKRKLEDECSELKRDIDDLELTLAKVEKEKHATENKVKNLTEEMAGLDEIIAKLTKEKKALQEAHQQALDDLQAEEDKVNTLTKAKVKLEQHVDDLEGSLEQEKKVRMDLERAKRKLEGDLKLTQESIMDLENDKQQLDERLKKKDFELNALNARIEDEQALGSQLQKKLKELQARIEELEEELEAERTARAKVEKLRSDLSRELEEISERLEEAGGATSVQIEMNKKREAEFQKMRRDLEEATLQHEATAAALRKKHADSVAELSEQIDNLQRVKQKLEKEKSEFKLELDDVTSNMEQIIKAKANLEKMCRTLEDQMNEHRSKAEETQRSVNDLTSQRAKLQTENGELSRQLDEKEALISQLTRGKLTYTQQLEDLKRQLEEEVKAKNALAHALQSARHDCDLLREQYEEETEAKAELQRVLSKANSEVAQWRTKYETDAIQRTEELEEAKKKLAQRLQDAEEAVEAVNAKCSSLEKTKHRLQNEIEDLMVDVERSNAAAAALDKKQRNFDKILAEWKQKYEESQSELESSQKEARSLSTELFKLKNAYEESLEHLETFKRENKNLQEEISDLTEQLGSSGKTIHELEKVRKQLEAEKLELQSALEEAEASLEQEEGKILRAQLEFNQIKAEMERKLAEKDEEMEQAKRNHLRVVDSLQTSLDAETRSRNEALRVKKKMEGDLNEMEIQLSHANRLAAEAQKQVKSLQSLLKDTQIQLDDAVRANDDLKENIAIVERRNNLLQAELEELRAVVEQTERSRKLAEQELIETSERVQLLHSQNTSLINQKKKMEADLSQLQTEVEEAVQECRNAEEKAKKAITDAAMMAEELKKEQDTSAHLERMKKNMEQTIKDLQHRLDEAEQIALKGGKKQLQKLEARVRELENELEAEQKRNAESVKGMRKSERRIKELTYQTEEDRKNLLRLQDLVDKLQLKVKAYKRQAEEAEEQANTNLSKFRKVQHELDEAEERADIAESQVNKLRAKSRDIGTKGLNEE
Chain of bovine cardiac myofibrils (full-length cardiac myosin ATPase in the native sarcomere) (P85100 whole entry partner): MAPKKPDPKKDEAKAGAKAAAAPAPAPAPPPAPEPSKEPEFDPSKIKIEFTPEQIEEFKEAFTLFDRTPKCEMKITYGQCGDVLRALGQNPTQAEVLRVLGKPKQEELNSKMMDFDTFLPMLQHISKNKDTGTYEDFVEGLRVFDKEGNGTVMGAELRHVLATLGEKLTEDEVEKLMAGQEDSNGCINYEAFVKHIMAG
Chain of bovine cardiac myofibrils (full-length cardiac myosin ATPase in the native sarcomere) (Q3SZE5 whole entry partner): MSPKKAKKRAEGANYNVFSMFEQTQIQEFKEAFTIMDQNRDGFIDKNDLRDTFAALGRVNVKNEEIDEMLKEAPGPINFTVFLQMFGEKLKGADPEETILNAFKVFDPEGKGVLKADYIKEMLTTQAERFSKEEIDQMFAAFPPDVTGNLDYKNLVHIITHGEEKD

Cn1nnc(C(=O)NC2COc3cc(-c4noc(C(F)F)n4)ccc32)n1 (centres unmarked) [Compound 197, N-(6-(5-(difluoromethyl)-1,2,4-oxadiazol-3-yl)-2,3-dihydrobenzofuran-3-yl)-2-methyl-2H-tetrazole-5-carboxamide]
CDMF75 IC15: 3200 nM | pIC50: 4.91

Cn1nnc(C(=O)N[C@@H]2COc3cc(-c4noc(C(F)F)n4)ccc32)n1 [Compound 198, (S)-N-(6-(5-(difluoromethyl)-1,2,4-oxadiazol-3-yl)-2,3-dihydrobenzofuran-3-yl)-2-methyl-2H-tetrazole-5-carboxamide]
CDMF75 IC15: 2000 nM | pIC50: 5.14

Cc1nc(-c2ccc3c(c2)OCC3NC(=O)c2nnn(C)n2)no1 (centres unmarked) [Compound 199, 2-methyl-N-(6-(5-methyl-1,2,4-oxadiazol-3-yl)-2,3-dihydrobenzofuran-3-yl)-2H-tetrazole-5-carboxamide]
CDMF75 IC15: 6000 nM | pIC50: 4.62

Cc1nc(-c2ccc3c(c2)OC[C@H]3NC(=O)c2nnn(C)n2)no1 [Compound 200, (S)-2-methyl-N-(6-(5-methyl-1,2,4-oxadiazol-3-yl)-2,3-dihydrobenzofuran-3-yl)-2H-tetrazole-5-carboxamide]
CDMF75 IC15: 2600 nM | pIC50: 4.95

Cc1noc(-c2ccc3c(c2)CC[C@H]3NC(=O)c2cn(C)nc2C)n1 [Compound 201, (R)-1,3-dimethyl-N-(5-(3-methyl-1,2,4-oxadiazol-5-yl)-2,3-dihydro-1H-inden-1-yl)-1H-pyrazole-4-carboxamide]
CDMF75 IC15: 1400 nM | pIC50: 5.27

Cc1noc(-c2ccc3c(c2)CC[C@H]3NC(=O)c2cnc(C)o2)n1 [Compound 202, (R)-2-methyl-N-(5-(3-methyl-1,2,4-oxadiazol-5-yl)-2,3-dihydro-1H-inden-1-yl)oxazole-5-carboxamide]
CDMF75 IC15: 2600 nM | pIC50: 4.98

Cc1noc(-c2ccc3c(c2)CC[C@H]3NC(=O)c2nnn(C)n2)n1 [Compound 203, (R)-2-methyl-N-(5-(3-methyl-1,2,4-oxadiazol-5-yl)-2,3-dihydro-1H-inden-1-yl)-2H-tetrazole-5-carboxamide]
CDMF75 IC15: 1000 nM | pIC50: 5.44

Cc1noc(-c2ccc3c(c2)CC[C@H]3NC(=O)c2ccnn2C)n1 [Compound 204, (R)-1-methyl-N-(5-(3-methyl-1,2,4-oxadiazol-5-yl)-2,3-dihydro-1H-inden-1-yl)-1H-pyrazole-5-carboxamide]
CDMF75 IC15: 500 nM | pIC50: 5.74

Cc1ncc(C(=O)NC2COc3cc(-c4noc(C(F)F)n4)ccc32)o1 (centres unmarked) [Compound 205, N-(6-(5-(difluoromethyl)-1,2,4-oxadiazol-3-yl)-2,3-dihydrobenzofuran-3-yl)-2-methyloxazole-5-carboxamide]
CDMF75 IC15: 1100 nM | pIC50: 5.40

Cc1ncc(C(=O)N[C@@H]2COc3cc(-c4noc(C(F)F)n4)ccc32)o1 [Compound 206, (S)-N-(6-(5-(difluoromethyl)-1,2,4-oxadiazol-3-yl)-2,3-dihydrobenzofuran-3-yl)-2-methyloxazole-5-carboxamide]
CDMF75 IC15: 700 nM | pIC50: 5.64

Cc1nn(C)cc1C(=O)NC1COc2cc(-c3noc(C(F)F)n3)ccc21 (centres unmarked) [Compound 207, N-(6-(5-(difluoromethyl)-1,2,4-oxadiazol-3-yl)-2,3-dihydrobenzofuran-3-yl)-1,3-dimethyl-1H-pyrazole-4-carboxamide]
CDMF75 IC15: 1000 nM | pIC50: 5.44

Cc1nn(C)cc1C(=O)N[C@@H]1COc2cc(-c3noc(C(F)F)n3)ccc21 [Compound 208, (S)-N-(6-(5-(difluoromethyl)-1,2,4-oxadiazol-3-yl)-2,3-dihydrobenzofuran-3-yl)-1,3-dimethyl-1H-pyrazole-4-carboxamide]
CDMF75 IC15: 500 nM | pIC50: 5.80

Cc1c(C(=O)NC2COc3cc(-c4noc(C(F)F)n4)ccc32)cnn1C (centres unmarked) [Compound 209, N-(6-(5-(difluoromethyl)-1,2,4-oxadiazol-3-yl)-2,3-dihydrobenzofuran-3-yl)-1,5-dimethyl-1H-pyrazole-4-carboxamide]
CDMF75 IC15: 900 nM | pIC50: 5.48

Cc1c(C(=O)N[C@@H]2COc3cc(-c4noc(C(F)F)n4)ccc32)cnn1C [Compound 210, (S)-N-(6-(5-(difluoromethyl)-1,2,4-oxadiazol-3-yl)-2,3-dihydrobenzofuran-3-yl)-1,5-dimethyl-1H-pyrazole-4-carboxamide]
CDMF75 IC15: 500 nM | pIC50: 5.80

Cc1nc(-c2ccc3c(c2)OCC3NC(=O)c2cnn(C)c2)no1 (centres unmarked) [Compound 212, 1-methyl-N-(6-(5-methyl-1,2,4-oxadiazol-3-yl)-2,3-dihydrobenzofuran-3-yl)-1H-pyrazole-4-carboxamide]
CDMF75 IC15: 1700 nM | pIC50: 5.22

Cc1cc(C(=O)N[C@@H]2CCc3cc(-c4nc(C(F)F)no4)ccc32)n(C)n1 [Compound 213, (R)-N-(5-(3-(difluoromethyl)-1,2,4-oxadiazol-5-yl)-2,3-dihydro-1H-inden-1-yl)-1,3-dimethyl-1H-pyrazole-5-carboxamide]
CDMF75 IC15: 1200 nM | pIC50: 5.33

Cc1nn(C)cc1C(=O)N[C@@H]1CCc2cc(-c3nc(C(F)F)no3)ccc21 [Compound 214, (R)-N-(5-(3-(difluoromethyl)-1,2,4-oxadiazol-5-yl)-2,3-dihydro-1H-inden-1-yl)-1,3-dimethyl-1H-pyrazole-4-carboxamide]
CDMF75 IC15: 1300 nM | pIC50: 5.31

Cc1ncc(C(=O)N[C@@H]2CCc3cc(-c4nc(C(F)F)no4)ccc32)o1 [Compound 215, (R)-N-(5-(3-(difluoromethyl)-1,2,4-oxadiazol-5-yl)-2,3-dihydro-1H-inden-1-yl)-2-methyloxazole-5-carboxamide]
CDMF75 IC15: 3000 nM | pIC50: 4.91

Cn1nnc(C(=O)N[C@@H]2CCc3cc(-c4nc(C(F)F)no4)ccc32)n1 [Compound 216, (R)-N-(5-(3-(difluoromethyl)-1,2,4-oxadiazol-5-yl)-2,3-dihydro-1H-inden-1-yl)-2-methyl-2H-tetrazole-5-carboxamide]
CDMF75 IC15: 1300 nM | pIC50: 5.31

Cn1nccc1C(=O)N[C@@H]1CCc2cc(-c3nc(C(F)F)no3)ccc21 [Compound 217, (R)—N-(5-(3-(difluoromethyl)-1,2,4-oxadiazol-5-yl)-2,3-dihydro-1H-inden-1-yl)-1-methyl-1H-pyrazole-5-carboxamide]
CDMF75 IC15: 600 nM | pIC50: 5.72

Cn1cc(C(=O)N[C@@H]2COc3cc(-c4noc(C(F)F)n4)ccc32)cn1 [Compound 218, (S)-N-(6-(5-(difluoromethyl)-1,2,4-oxadiazol-3-yl)-2,3-dihydrobenzofuran-3-yl)-1-methyl-1H-pyrazole-4-carboxamide]
CDMF75 IC15: 500 nM | pIC50: 5.80

Cn1cc(C(=O)NC2COc3cc(-c4noc(C(F)F)n4)ccc32)cn1 (centres unmarked) [Compound 219, N-(6-(5-(difluoromethyl)-1,2,4-oxadiazol-3-yl)-2,3-dihydrobenzofuran-3-yl)-1-methyl-1H-pyrazole-4-carboxamide]
CDMF75 IC15: 700 nM | pIC50: 5.60

Cn1nccc1C(=O)N[C@H]1COc2cc(-c3noc(C4CC4)n3)ccc21 [Compound 220, (R)-N-(6-(5-cyclopropyl-1,2,4-oxadiazol-3-yl)-2,3-dihydrobenzofuran-3-yl)-1-methyl-1H-pyrazole-5-carboxamide]
CDMF75 IC15: 38300 nM | pIC50: < 4.41

Cn1nccc1C(=O)NC1COc2cc(-c3noc(C4CC4)n3)ccc21 (centres unmarked) [Compound 221, N-(6-(5-cyclopropyl-1,2,4-oxadiazol-3-yl)-2,3-dihydrobenzofuran-3-yl)-1-methyl-1H-pyrazole-5-carboxamide]
CDMF75 IC15: 600 nM | pIC50: 5.70

COCc1nc(-c2ccc3c(c2)OCC3NC(=O)c2ccnn2C)no1 (centres unmarked) [Compound 223, N-(6-(5-(methoxymethyl)-1,2,4-oxadiazol-3-yl)-2,3-dihydrobenzofuran-3-yl)-1-methyl-1H-pyrazole-5-carboxamide]
CDMF75 IC15: 1300 nM | pIC50: 5.38

COCc1nc(-c2ccc3c(c2)OC[C@H]3NC(=O)c2ccnn2C)no1 [Compound 224, (S)-N-(6-(5-(methoxymethyl)-1,2,4-oxadiazol-3-yl)-2,3-dihydrobenzofuran-3-yl)-1-methyl-1H-pyrazole-5-carboxamide]
CDMF75 IC15: 600 nM | pIC50: 5.68

COCc1nc(-c2ccc3c(c2)OC[C@@H]3NC(=O)c2cc(C)nn2C)no1 [Compound 225, (R)-N-(6-(5-(methoxymethyl)-1,2,4-oxadiazol-3-yl)-2,3-dihydrobenzofuran-3-yl)-1,3-dimethyl-1H-pyrazole-5-carboxamide]
CDMF75 IC15: 39200 nM | pIC50: 4.41

COCc1nc(-c2ccc3c(c2)OCC3NC(=O)c2cc(C)nn2C)no1 (centres unmarked) [Compound 226, N-(6-(5-(methoxymethyl)-1,2,4-oxadiazol-3-yl)-2,3-dihydrobenzofuran-3-yl)-1,3-dimethyl-1H-pyrazole-5-carboxamide]
CDMF75 IC15: 1200 nM | pIC50: 5.40

COCc1nc(-c2ccc3c(c2)OC[C@H]3NC(=O)c2cc(C)nn2C)no1 [Compound 227, (S)-N-(6-(5-(methoxymethyl)-1,2,4-oxadiazol-3-yl)-2,3-dihydrobenzofuran-3-yl)-1,3-dimethyl-1H-pyrazole-5-carboxamide]
CDMF75 IC15: 700 nM | pIC50: 5.66

CCc1nc(-c2ccc3c(c2)OC[C@H]3NC(=O)c2ccnn2C)no1 [Compound 228, (S)—N-(6-(5-ethyl-1,2,4-oxadiazol-3-yl)-2,3-dihydrobenzofuran-3-yl)-1-methyl-1H-pyrazole-5-carboxamide]
CDMF75 IC15: 300 nM | pIC50: 6.10

CCc1nc(-c2ccc3c(c2)OCC3NC(=O)c2ccnn2C)no1 (centres unmarked) [Compound 229, N-(6-(5-ethyl-1,2,4-oxadiazol-3-yl)-2,3-dihydrobenzofuran-3-yl)-1-methyl-1H-pyrazole-5-carboxamide]
CDMF75 IC15: 500 nM | pIC50: 5.85
